Measurements taken from US9381200B2, “Nitrogen containing compounds” (WOCKHARDT LIMITED, priority 2011, dated 2016).
Like-named read-outs stand apart in the source and are kept apart here.

Experiments:
Format in all cases: cell-based
[1] = test system: E. coli NCTC 13351; test: Antibacterial activity (MIC), agar dilution per CLSI; conditions: Escherichia coli, NCTC13351, Table 3, E. coli NCTC 13351 expressing ESBL, 16-20 hours, 35±2° C., read-out: MIC
Procedure, shortened: (§1)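 Agar dilution MIC per CLSI: overnight cultures diluted and inoculated onto agar containing doubling dilutions of compound. Growth/no growth read after 16-20 h at 35±2° C in ambient air. Strains express ESBL.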

[2] = test system: E. coli 7 MP; test: as above; conditions: Escherichia coli, Table 3, E. coli 7 MP expressing ESBL, read-out: MIC
Procedure, shortened: as §1

[3] = test system: E. coli M 50; test: as above; conditions: Escherichia coli, read-out: MIC
Procedure, shortened: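 MIC values (mcg/ml) are the lowest compound level on agar showing no growth. Each strain, taken from an overnight culture and diluted, is inoculated onto media carrying doubling dilutions of compound, then incubated for 16-20 hours at 35±2° C. without added CO2.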

[4] = test system: E. Coli M 44; test: Antibacterial activity (MIC) against MDR Gram negative strains; conditions: Escherichia coli; Table 5; E. Coli M 44, Class B ESBL, MDR; read-out: MIC
Procedure: (§2) The biological activity of representative compounds according to the invention against various bacterial strains was investigated. In a typical study, overnight grown bacterial cultures were diluted appropriately and inoculated on the agar media containing doubling dilutions of the test compounds. Observation for growth or no growth was performed after 16-20 hours of incubation at 35±2° C. in ambient air. The overall procedure was performed as per Clinical and Laboratory Standards Institute (CLSI) recommendations (Clinical and Laboratory Standards Institute (CLSI), Performance Standards for Antimicrobial Susceptibility Testing, 20th Informational Supplement, M 100-S20, Volume 30, No. 1, 2010).
(§3) The activities are expressed as MICs (mcg/ml).

[5] = test system: P. aeruginosa Ps 32; test: as above; conditions: Pseudomonas aeruginosa, PS32; Table 5; P. aeruginosa Ps 32; read-out: MIC
Procedure: as §2, §3

[6] = test system: P. aeruginosa ATCC 27853; test: as above; conditions: Pseudomonas aeruginosa, ATCC27853; Table 5; P. aeruginosa ATCC 27853; read-out: MIC
Procedure: as §2, §3

[7] = test system: E. Coli H 484; test: as above; conditions: Escherichia coli; Table 4; E. Coli H 484, Class C ESBL, MDR; read-out: MIC
Procedure: as §2, §3

[8] = test system: E. Coli W 13352; test: as above; conditions: Escherichia coli; Table 4; E. Coli W 13352, Class A ESBL, MDR; read-out: MIC
Procedure: as §2, §3

[9] = test system: E. Coli W 13351; test: as above; conditions: Escherichia coli; Table 4; E. Coli W 13351, Class A ESBL, MDR; read-out: MIC
Procedure: as §2, §3

[10] = test system: E. Coli B 89; test: as above; conditions: Escherichia coli; Table 4; E. Coli B 89, Class C ESBL, MDR; read-out: MIC
Procedure: as §2, §3

[11] = test system: E. Coli W 13353; test: as above; conditions: Escherichia coli; Table 4; E. Coli W 13353, Class A ESBL, MDR; read-out: MIC
Procedure: as §2, §3

[12] = test system: P. aeruginosa Ps 21; test: as above; conditions: Pseudomonas aeruginosa, PS21; Table 5; P. aeruginosa Ps 21; read-out: MIC
Procedure: as §2, §3

[13] = test system: K. penumoniae S 48; test: as above; conditions: Table 5; K. penumoniae S 48, Class B ESBL, MDR; read-out: MIC
Procedure: as §2, §3

[14] = test system: K penumoniae H 521; test: as above; conditions: Table 4; K penumoniae H 521, KPC ESBL, MDR; read-out: MIC
Procedure: as §2, §3

[15] = test system: E. Coli M 3; test: as above; conditions: Escherichia coli; Table 5; E. Coli M 3, Class B ESBL, MDR; read-out: MIC
Procedure: as §2, §3

[16] = test system: K penumoniae H 525; test: as above; conditions: Table 4; K penumoniae H 525, KPC ESBL, MDR; read-out: MIC
Procedure: as §2, §3

[17] = test system: K penumoniae H 523; test: as above; conditions: Table 4; K penumoniae H 523, KPC ESBL, MDR; read-out: MIC
Procedure: as §2, §3

[18] = test system: A. baumannii G-165; test: Antibacterial activity of sulbactam / Cefepime combinations with a compound of the invention (MIC); conditions: Acinetobacter baumannii
Procedure: as §2

[19] = test system: A. baumannii J-143; test: as above; conditions: Acinetobacter baumannii
Procedure: as §2

[20] = test system: A. baumannii 1460648; test: as above
Procedure: as §2

[21] = test system: A. baumannii S-334; test: as above; conditions: Acinetobacter baumannii
Procedure: as §2

[22] = M50, Table 3, E. coli M 50 expressing ESBL, agar dilution
[23] = M50, Table 4, E. Coli M 50, Class C ESBL, MDR

Measured: MIC

O=C(NNC(=O)[C@@H]1CC[C@@H]2CN1C(=O)N2OS(=O)(=O)O)[C@@H]1CCCN1 [Example 1, trans-sulfuric acid mono-[2-(N′—[(S)-pyrrolidin-2-carbonyl]-hydrazinocarbonyl)-7-oxo-1,6-diaza-bicyclo[3.2.1]oct-6-yl]ester]
2 µg/mL: [7] | [13]
16 µg/mL: [6] | [12]
0.5 µg/mL: [3]; [23] | [8] | [9] | [10] | [14] | [16] | [17]
32 µg/mL: [5]
1 µg/mL: [15]
0.25 µg/mL: [2] | [3]; [22] | [4] | [11]
0.025 µg/mL: [1]

O=C(NNC(=O)[C@@H]1CC[C@@H]2CN1C(=O)N2OS(=O)(=O)O)[C@@H]1CCCNC1 [Example 2, trans-sulfuric acid mono-[2-(N′—[(R)-piperidin-3-carbonyl]-hydrazinocarbonyl)-7-oxo-1,6-diaza-bicyclo[3.2.1]oct-6-yl]ester]
0.25 µg/mL: [1] | [3]; [22] | [3]; [23] | [8] | [9] | [10]
2 µg/mL: [15]
0.5 µg/mL: [4] | [13] | [14] | [16]
8 µg/mL: [5] | [6] | [12]
> 32 µg/mL: [18]; G165, footnotes of Tables 7 and 8, A. baumannii G-165, substance used alone, read-out: Standalone MIC | [19]; J143, footnotes of Tables 7 and 8, A. baumannii J-143, substance used alone, read-out: Standalone MIC | [20]; Acinetobacter baumannii, footnotes of Tables 7 and 8, A. baumannii 1460648, substance used alone, read-out: Standalone MIC | [21]; S334, footnotes of Tables 7 and 8, A. baumannii S-334, substance used alone, read-out: Standalone MIC
0.12 µg/mL: [7] | [11]
1 µg/mL: [2] | [17]

O=C(NNC(=O)[C@@H]1CC[C@@H]2CN1C(=O)N2OC(F)(F)C(=O)O)[C@@H]1CCCNC1 [Example 5, trans-difluoro-{7-oxo-2-[N′—((R)-piperidin-3-carbonyl)-hydrazinocarbonyl]-1,6-diaza-bicyclo[3.2.1]-oct-6-yloxy}-acetic acid]
> 32 µg/mL: [5] | [6] | [12]
0.5 µg/mL: [2] | [4] | [8] | [10] | [11]
1 µg/mL: [3]; [23] | [7] | [14] | [15] | [17]
2 µg/mL: [13] | [16]
0.25 µg/mL: [1] | [3]; [22] | [9]

N#CCC(=O)NNC(=O)[C@@H]1CC[C@@H]2CN1C(=O)N2OS(=O)(=O)[O-].[Na+] [Example 43, Sodium salt of trans-sulfuric acid mono-[2-(N′-(cyano-acetyl)-hydrazinocarbonyl)-7-oxo-1,6-diaza-bicyclo[3.2.1]oct-6-yl]ester]
> 32 µg/mL: [5] | [6] | [12]
2 µg/mL: [3]; [22] | [14]
1 µg/mL: [1] | [3]; [23] | [8] | [9] | [10] | [11] | [13] | [16] | [17]
8 µg/mL: [2] | [7]
4 µg/mL: [15]
0.5 µg/mL: [4]

CC1(C)[C@H](C(=O)O)N2C(=O)C[C@H]2S1(=O)=O [Sulbactam, sulbactam]
32 µg/mL: [18]; G165, read-out: MIC of sulbactam | [18]; G165, read-out: Standalone MIC | [19]; J143, read-out: MIC of sulbactam | [19]; J143, read-out: Standalone MIC | [20]; Acinetobacter baumannii, 1460648, read-out: MIC of sulbactam | [20]; Acinetobacter baumannii, 1460648, read-out: Standalone MIC | [21]; S334, read-out: MIC of sulbactam | [21]; S334, read-out: Standalone MIC
